Measured values: patent US20220169680A1 (priority 2018, published 2022)
“Also recorded” adds a separate entry of the source.

Assays:
[1] = tested on: LPS-induced acute lung injury in mice; settings: mouse, in vivo; cited from earlier work
[2] = tested on: LPS-induced acute lung injury in mice; set-up: species or system C57 BL/6 male mice; settings: mouse, in vivo
[3] = tested on: A549 cells; type: cell-based
[4] = tested on: A549 cells; type: cell-based; remark: listed apart in the source
[5] = tested on: 3′ UTR region of COLLAGEN3A1 gene; type: cell-based
[6] = tested on: A549 cells; type: cell-based; remark: listed apart in the source
[7] = tested on: murine organs; set-up: species or system C57 BL/6 male mice; settings: mouse, in vivo
[8] = tested on: 293T cell, HUVEC cell, HCT-116 cell, MKN-45 cell, MRCS cell, U397 cell and ESF-1 cell; type: cell-based
[9] = tested on: HEK293T cells; type: cell-based
[10] = tested on: A549 cells; type: cell-based; remark: listed apart in the source
[11] = tested on: HeLa cells; type: cell-based
[12] = tested on: A549 cells; type: cell-based; remark: listed apart in the source
[13] = tested on: MRCS cells; type: cell-based
[14] = tested on: poly(I:C)-induced acute lung injury mouse model; set-up: species or system C57 BL/6 male mice; settings: in vivo
[15] = tested on: LPS-induced acute lung injury in mice; set-up: species or system C57 BL/6 male mice; settings: mouse, in vivo; remark: listed apart in the source
[16] = tested on: 3′ UTR region of RELA gene; type: cell-based

In the case of `COc1cc(C2Oc3cc([C@H]4Oc5cc(O)cc(O)c5C(=O)[C@@H]4O)ccc3OC2CO)ccc1O` (stereo partly shown) [silybin, reference compound], the “effect on LPS-induced acute lung injury in mice” value [1] is listed as “can effectively reduce the LPS-induced acute lung injury in mice” and the “effect on preventing lung injury (IL-6 in alveolar lavage fluid)” value [2] is listed as “had a tendency to prevent lung injury at this dose”.

With “DRLFFKCIYRRLKYGLKR [Jilin-2004(H5N1)-M2-44-61]” the “ability to carry small RNA into cells compared with the transfection reagent RNAiMax group, qPCR” value [3] was “stronger than the transfection reagent RNAiMax group”, the “ability to carry small RNA into cells, qPCR” value [3] was “all had the ability to carry small RNA into cells” and the “rank of ability to carry small RNA in the cell experiments” value [3] was “the strongest ability to carry small RNA in the cell experiments”. For the same compound, the “carrying Cy3-labeled small RNA into cells (super high resolution microscope)” value [4] was “can carry Cy3-labeled small RNA into A549 cells”, the “effect compared with RNAiMax or TAT (super high resolution microscope)” value [4] was “stronger than that of the transfection reagent RNAiMax or of TAT” and the “ability to carry HJT-sRNA-m7 compared with positive control TAT” value [5] was “stronger than that of the positive control TAT”. For the same compound, the “carrying HJT-sRNA-m7 into cells and fulfilling its function (luciferase reporter)” value [5] was “could carry HJT-sRNA-m7 into cells and fulfill its function”, the “cell-penetrating peptide effect compared with transfection reagent RNAiMax” value [5] was “close to the transfection reagent RNAiMax” and the “amount of cell entry versus incubation duration” value [6] was “increased as the incubation duration increased”. For the same compound, the cell entry [6] was “entered A549 cells”, the “cell entry after 5 min incubation” value [6] was “cell entry could be detected; also recorded: the entry into the cell was observed” and the “cell entry at 30 min” value [6] was “had a strong entry effect”. The “cell entry at lower concentrations” value [6] was “could still enter A549 cells”, the “cell entry effect compared with TAT at the same time points” value [6] was “much stronger than that of the positive control TAT polypeptide” and the “cell entry effect compared with TAT positive control” value [6] was “stronger than that of the TAT polypeptide”. For the same compound, the “cell entry effect compared with existing cell-penetrating peptides (Table 4)” value [6] was “significantly better cell entry effects than existing cell-penetrating peptides”, the “cell entry effect compared with the other three penetrating polypeptides” value [6] was “even better cell entry effect” and the “cell-penetrating peptide function compared with positive control TAT” value [6] was “stronger than that of the positive control TAT”. For the same compound, the “difference in entry effects between 1 h, 3 h and 6 h” value [6] was “little difference in entry effects”, the “entry effect compared with other C-terminally truncated polypeptides” value [6] was “even better entry effects than other polypeptides” and the “ability to deliver small RNA compared with TAT” value [7] was “significantly stronger than that of TAT”. For the same compound, the “murine organs or tissues in which small RNA was detected” value [7] was “detected in 8 murine organs or tissues, including heart, liver, spleen, lung, kidney, stomach, small intestine and thymus”, the “delivery of small RNAs to murine organs” value ([7]; ip) was “could effectively deliver small RNAs (PGY-sRNA-23 and PGY-sRNA-26) to murine organs” and the “entry effect compared with other fragments in different cell lines” value [8] was “even better entry effects”. For the same compound, the “carrying NS1-GFP plasmid into cells and GFP expression” value [9] was “could carry NS1-GFP plasmid into HEK293 cells, and GFP protein was expressed in the nucleus”, the “carrying Cy3-labeled small RNA into cells” value [10] was “can carry small RNA into cells” and the “effect compared with transfection reagent RNAiMax” value [10] was “stronger than that of the transfection reagent RNAiMax”. The cell penetration properties [11] was “consistent with the results obtained using A549 cells”, the “ability to carry FAM-labeled small RNA compared with transfection reagent RNAiMax” value [12] was “stronger than that of the transfection reagent RNAiMax” and the “ability to carry small RNA compared with TAT at the same concentration” value [12] was “significantly stronger”. For the same compound, the “carrying FAM-labeled small RNA into cells” value [12] was “can all carry small RNA into cells”, the cell penetration properties [13] was “consistent with the results obtained using A549 cells” and the “effect on preventing lung injury (IL-6 in alveolar lavage fluid)” value [2] was “had no effect on preventing lung injury”. The “ability to carry small RNA in murine organs compared with TAT” value [14] was “stronger than that of TAT”, the “entry of miR1246 antagomir into lung tissue of mice” value [15] was “could improve the entry of miR1246 antagomir into lung tissue of mice” and the “ability to carry PGY-dsRNA-6 compared with positive control TAT” value [16] was “stronger than that of the positive control TAT”. The “carrying PGY-dsRNA-6 into cells and fulfilling its function (luciferase reporter)” value [16] was “could all carry PGY-dsRNA-6 into cells and fulfill its function” and the “cell-penetrating peptide effect compared with transfection reagent RNAiMax” value [16] was “close to the transfection reagent RNAiMax”.
